Source: patent US20250262201A1, “COMPOUNDS AND METHODS USEFUL FOR STABILIZING PHENYLALANINE HYDROXYLASE MUTATIONS” (Agios Pharmaceuticals, Inc., priority 2022, published 2025)

Molecular target: T1, human PAH with the R408W mutation (Homo sapiens, UniProt P00439, R408W)
T1 construct: expressed in transfected cells
T1 sequence (P00439 1-452 R408W): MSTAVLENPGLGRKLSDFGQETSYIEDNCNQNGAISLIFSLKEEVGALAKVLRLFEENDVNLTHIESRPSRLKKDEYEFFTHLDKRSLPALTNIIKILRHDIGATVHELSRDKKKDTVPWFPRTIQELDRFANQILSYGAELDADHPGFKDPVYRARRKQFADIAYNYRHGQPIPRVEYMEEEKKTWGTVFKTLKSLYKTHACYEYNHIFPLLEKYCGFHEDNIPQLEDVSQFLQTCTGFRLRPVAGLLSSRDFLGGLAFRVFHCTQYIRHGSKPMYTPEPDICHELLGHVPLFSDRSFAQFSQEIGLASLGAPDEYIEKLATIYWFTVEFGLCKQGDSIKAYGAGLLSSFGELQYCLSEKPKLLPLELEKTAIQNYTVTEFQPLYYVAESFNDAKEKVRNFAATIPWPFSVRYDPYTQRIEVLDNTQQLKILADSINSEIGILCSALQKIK
Test: Cell Based Phenylalanine Flux Assay
Details: A375 R408W cells, 24 hrs with compound, then 20 μM sepiapterin and 800 μM 13C9,15N-Phenylalanine for 4 hours; 13C-Tyrosine by LC-MS; average where tested multiple times; read-out: AC50

Structure (SMILES)	AC50
O=C(c1nc2ccccc2s1)N1CCc2[nH]cnc2C1c1ccc2ccccc2c1 (centres unmarked)	> 5 µM
O=C(c1nnc(CCO)o1)N1CCc2[nH]cnc2C1c1ccc2ccccc2n1 (centres unmarked)	> 5 µM
O=C(CCc1ccc(F)cc1)N1CCc2[nH]cnc2C1c1ccc2ccccc2c1 (centres unmarked)	> 5 µM
O=C(CCc1nccs1)N1CCc2[nH]cnc2C1c1cn2ccccc2n1 (centres unmarked)	1 to 5 µM
O=C(Cc1cscn1)N1CCc2[nH]cnc2C1c1cn2ccccc2n1 (centres unmarked)	1 to 5 µM
O=C(Cc1cnco1)N1CCc2[nH]cnc2C1c1cn2ccccc2n1 (centres unmarked)	> 5 µM
O=C(Cc1cncs1)N1CCc2[nH]cnc2C1c1cn2ccccc2n1 (centres unmarked)	> 5 µM
Cc1nnc(CC(=O)N2CCc3[nH]cnc3C2c2cn3ccccc3n2)s1 (centres unmarked)	> 5 µM
Cc1ncc(CC(=O)N2CCc3[nH]cnc3C2c2cn3ccccc3n2)o1 (centres unmarked)	> 5 µM
O=C(Cc1nncs1)N1CCc2[nH]cnc2C1c1cn2ccccc2n1 (centres unmarked)	> 5 µM
O=C(Cc1cnn2ccccc12)N1CCc2[nH]cnc2C1c1cn2ccccc2n1 (centres unmarked)	> 5 µM
Cc1ncoc1CC(=O)N1CCc2[nH]cnc2C1c1cn2ccccc2n1 (centres unmarked)	> 5 µM
O=C(Cc1nc(C(F)(F)F)cs1)N1CCc2[nH]cnc2C1c1cn2ccccc2n1 (centres unmarked) [listing 1 of 2 here]	1 to 5 µM
Cc1nc(C2(O)CC2)oc1C(=O)N1CCc2[nH]cnc2C1c1ccc2ccccc2n1 (centres unmarked) [listing 1 of 2 here]	1 to 5 µM
Cn1nc(C(C)(C)O)cc1C(=O)N1CCc2[nH]cnc2C1c1ccc2ccccc2n1 (centres unmarked)	> 5 µM
O=C(Cc1coc(C(F)F)n1)N1CCc2nc[nH]c2C1c1cn2ccccc2n1 (centres unmarked)	1 to 5 µM
CC(C)(O)c1cc(C(=O)N2CCc3[nH]cnc3C2c2ccc3ccccc3n2)no1 (centres unmarked) [listing 1 of 2 here]	1 to 5 µM
Cc1nnc(C(=O)N2CCc3[nH]cnc3C2c2cn3ccccc3n2)o1 (centres unmarked)	1 to 5 µM
Cn1ccc(C(=O)N2CCc3[nH]cnc3C2c2ccc3ccccc3n2)n1 (centres unmarked)	1 to 5 µM
Cn1nc(C(F)(F)F)nc1C(=O)N1CCc2[nH]cnc2C1c1ccc2ccccc2n1 (centres unmarked)	1 to 5 µM
O=C(c1cn[nH]c1)N1CCc2[nH]cnc2C1c1ccc2ccccc2n1 (centres unmarked)	1 to 5 µM

Structure (SMILES)	AC50
O=C(c1ccn[nH]1)N1CCc2[nH]cnc2C1c1ccc2ccccc2n1 (centres unmarked) [listing 1 of 2 here]	1 to 5 µM
Cc1nc(C(C)(C)S(C)(=O)=O)oc1C(=O)N1CCc2[nH]cnc2C1c1ccc2ccccc2n1 (centres unmarked)	1 to 5 µM
Cc1nc(C2CCN2)oc1C(=O)N1CCc2[nH]cnc2C1c1ccc2ccccc2n1 (centres unmarked) [listing 1 of 2 here]	1 to 5 µM
CC(C)(O)c1nc(C(F)(F)F)c(C(=O)N2CCc3[nH]cnc3C2c2cn3ccccc3n2)o1 (centres unmarked)	1 to 5 µM
Cc1nc(C(C)(C)O)oc1C(=O)N1CCc2[nH]cnc2C1c1cn2ccccc2n1 (centres unmarked)	1 to 5 µM
CC(C)(O)c1cc(C(=O)N2CCc3[nH]cnc3C2c2ccc3ccccc3n2)on1 (centres unmarked) [listing 1 of 2 here]	1 to 5 µM
CC(C)(O)c1cc(C(=O)N2CCc3[nH]cnc3C2c2ccc3ccccc3n2)[nH]n1 (centres unmarked)	> 5 µM
O=C(c1cnn(CC(F)(F)F)c1Cl)N1CCc2[nH]cnc2C1c1ccc2ccccc2n1 (centres unmarked) [listing 1 of 2 here]	1 to 5 µM
O=C(c1cnco1)N1CCc2[nH]cnc2C1c1cn2ccccc2n1 (centres unmarked)	1 to 5 µM
O=C(c1cncs1)N1CCc2[nH]cnc2C1c1cn2ccccc2n1 (centres unmarked) [listing 1 of 2 here]	1 to 5 µM
O=C(C1CC1)N1CCc2nc[nH]c2C1c1cn2ccccc2n1 (centres unmarked)	1 to 5 µM
Cn1cc(-c2ncc(C(=O)N3CCc4[nH]cnc4C3c3ncc4ccccc4n3)o2)cn1 (centres unmarked) [listing 1 of 2 here]	> 5 µM
CC(C)(O)c1nnc(C(=O)N2CCc3[nH]cnc3C2c2ncc3ccccc3n2)o1 (centres unmarked) [listing 1 of 2 here]	> 5 µM
CN(C)c1nnc(C(=O)N2CCc3[nH]cnc3C2c2ncc3ccccc3n2)o1 (centres unmarked) [listing 1 of 2 here]	> 5 µM
O=C(c1nnc(-c2ncccn2)o1)N1CCc2[nH]cnc2C1c1ncc2ccccc2n1 (centres unmarked) [listing 1 of 2 here]	> 5 µM
Cc1nnc(C(=O)N2CCc3[nH]cnc3C2c2ncc3ccccc3n2)o1 (centres unmarked) [listing 1 of 2 here]	> 5 µM
CN(C)Cc1ccc2c(C(=O)N3CCc4[nH]cnc4C3c3cn4ccccc4n3)cnn2c1 (centres unmarked)	> 5 µM
O=C(c1cnn2cc(N3CCC(O)CC3)ccc12)N1CCc2[nH]cnc2C1c1ncc2ccccc2n1 (centres unmarked)	1 to 5 µM
O=C(CCc1nccs1)N1CCc2[nH]cnc2C1c1cc2ccccc2nn1 (centres unmarked)	1 to 5 µM
O=C(Cc1nc(C(F)(F)F)cs1)N1CCc2[nH]cnc2C1c1cn2ccccc2n1 (centres unmarked) [listing 2 of 2 here]	> 5 µM
Cc1nc(C2(O)CC2)oc1C(=O)N1CCc2[nH]cnc2C1c1ccc2ccccc2n1 (centres unmarked) [listing 2 of 2 here]	> 5 µM

Structure (SMILES)	AC50
CC(C)(O)c1cc(C(=O)N2CCc3[nH]cnc3C2c2ccc3ccccc3n2)no1 (centres unmarked) [listing 2 of 2 here]	> 5 µM
Cn1nc(COC(F)(F)F)cc1C(=O)N1CCc2[nH]cnc2C1c1ccc2ccccc2n1 (centres unmarked)	> 5 µM
O=C(c1ccn[nH]1)N1CCc2[nH]cnc2C1c1ccc2ccccc2n1 (centres unmarked) [listing 2 of 2 here]	> 5 µM
Cc1nc(C2CCN2)oc1C(=O)N1CCc2[nH]cnc2C1c1ccc2ccccc2n1 (centres unmarked) [listing 2 of 2 here]	> 5 µM
CC(C)(O)c1nnc(C(=O)N2CCc3[nH]cnc3C2c2cc3ccccc3nn2)o1 (centres unmarked)	1 to 5 µM
CC(C)(O)c1cc(C(=O)N2CCc3[nH]cnc3C2c2ccc3ccccc3n2)on1 (centres unmarked) [listing 2 of 2 here]	> 5 µM
Cc1nc(-c2cnn(C)c2)oc1C(=O)N1CCc2[nH]cnc2C1c1ncc2ccccc2n1 (centres unmarked)	> 5 µM
Cn1cncc1-c1nnc(C(=O)N2CCc3[nH]cnc3C2c2ncc3ccccc3n2)o1 (centres unmarked)	1 to 5 µM
O=C(c1cnn(CC(F)(F)F)c1Cl)N1CCc2[nH]cnc2C1c1ccc2ccccc2n1 (centres unmarked) [listing 2 of 2 here]	> 5 µM
O=C(c1cnco1)N1CCc2[nH]cnc2C1c1cc2ccccc2nn1 (centres unmarked)	1 to 5 µM
O=C(c1cnc(-c2ccccn2)o1)N1CCc2[nH]cnc2C1c1cc2ccccc2nn1 (centres unmarked)	1 to 5 µM
Cn1nc(C(F)F)nc1C(=O)N1CCc2[nH]cnc2C1c1cc2ccccc2nn1 (centres unmarked)	1 to 5 µM
O=C(c1ocnc1C(F)F)N1CCc2[nH]cnc2C1c1cc2ccccc2nn1 (centres unmarked)	1 to 5 µM
O=C(c1oc(-c2ccccn2)nc1C(F)F)N1CCc2[nH]cnc2C1c1cc2ccccc2nn1 (centres unmarked)	> 5 µM
Cn1ccc(-c2nnc(C(=O)N3CCc4[nH]cnc4C3c3cc4ccccc4nn3)o2)n1 (centres unmarked)	1 to 5 µM
Cn1cc(-c2nnc(C(=O)N3CCc4[nH]cnc4C3c3cc4ccccc4nn3)o2)cn1 (centres unmarked)	1 to 5 µM
O=C(c1nnc(-c2ccccn2)o1)N1CCc2[nH]cnc2C1c1cc2ccccc2nn1 (centres unmarked)	1 to 5 µM
O=C(c1nnc(C2CC2)o1)N1CCc2[nH]cnc2C1c1cc2ccccc2nn1 (centres unmarked)	1 to 5 µM
Cc1nnc(C(=O)N2CCc3[nH]cnc3C2c2cc3ccccc3nn2)o1 (centres unmarked)	> 5 µM
CC(C)(C)c1nnc(C(=O)N2CCc3[nH]cnc3C2c2cc3ccccc3nn2)o1 (centres unmarked)	1 to 5 µM
O=C(c1cncs1)N1CCc2[nH]cnc2C1c1cn2ccccc2n1 (centres unmarked) [listing 2 of 2 here]	> 5 µM

Structure (SMILES)	AC50
Cn1cc(-c2ncc(C(=O)N3CCc4[nH]cnc4C3c3ncc4ccccc4n3)o2)cn1 (centres unmarked) [listing 2 of 2 here]	1 to 5 µM
CC(C)(O)c1ncc(C(=O)N2CCc3[nH]cnc3C2c2ncc3ccccc3n2)o1 (centres unmarked)	> 5 µM
Cc1ncoc1C(=O)N1CCc2[nH]cnc2C1c1ncc2ccccc2n1 (centres unmarked)	1 to 5 µM
O=C(c1nnc(-c2cn[nH]c2)o1)N1CCc2[nH]cnc2C1c1ncc2ccccc2n1 (centres unmarked)	1 to 5 µM
CC(C)(O)c1nnc(C(=O)N2CCc3[nH]cnc3C2c2ncc3ccccc3n2)o1 (centres unmarked) [listing 2 of 2 here]	1 to 5 µM
O=C(c1nnc(N2CC(F)C2)o1)N1CCc2[nH]cnc2C1c1ncc2ccccc2n1 (centres unmarked)	1 to 5 µM
CN1CCN(c2nnc(C(=O)N3CCc4[nH]cnc4C3c3ncc4ccccc4n3)o2)CC1 (centres unmarked)	1 to 5 µM
CN(C)c1nnc(C(=O)N2CCc3[nH]cnc3C2c2ncc3ccccc3n2)o1 (centres unmarked) [listing 2 of 2 here]	1 to 5 µM
O=C(c1nnc(-c2ncccn2)o1)N1CCc2[nH]cnc2C1c1ncc2ccccc2n1 (centres unmarked) [listing 2 of 2 here]	1 to 5 µM
Cc1nnc(C(=O)N2CCc3[nH]cnc3C2c2ncc3ccccc3n2)o1 (centres unmarked) [listing 2 of 2 here]	1 to 5 µM
O=C(c1nnc(N2CCOCC2)o1)N1CCc2[nH]cnc2C1c1ncc2ccccc2n1 (centres unmarked)	1 to 5 µM
CN(C)Cc1ccc2c(C(=O)N3CCc4[nH]cnc4C3c3cc4ccccc4nn3)cnn2c1 (centres unmarked)	> 5 µM
Cc1ncoc1C(=O)N1CC(C)c2[nH]cnc2C1c1cc2ccccc2cn1 (centres unmarked)	> 5 µM
CC1CN(C(=O)c2nnc(-c3cnn(C)c3)o2)C(c2cc3ccccc3cn2)c2nc[nH]c21 (centres unmarked) [listing 1 of 3 here]	1 to 5 µM
COCc1ccc2c(C(=O)N3CC(C)c4[nH]cnc4C3c3cc4ccccc4cn3)cnn2c1 (centres unmarked)	1 to 5 µM
CC1CN(C(=O)c2ocnc2C(F)(F)F)C(c2cc3ccccc3cn2)c2nc[nH]c21 (centres unmarked)	1 to 5 µM
CC1CN(C(=O)c2nnc(-c3cnn(C)c3)o2)C(c2cc3ccccc3cn2)c2nc[nH]c21 (centres unmarked) [listing 2 of 3 here]	1 to 5 µM
COCCNc1nnc(C(=O)N2CC(C)c3[nH]cnc3C2c2cc3ccccc3cn2)o1 (centres unmarked)	1 to 5 µM
CC1CN(C(=O)c2nnc(NC3CC3)o2)C(c2cc3ccccc3cn2)c2nc[nH]c21 (centres unmarked)	1 to 5 µM
CC1CN(C(=O)c2nnc(-c3cnn(C)c3)o2)C(c2cc3ccccc3cn2)c2nc[nH]c21 (centres unmarked) [listing 3 of 3 here]	> 5 µM
